Test results from US8895592B2, “Compounds as cannabinoid receptor ligands” (priority 2008, dated 2014).

How the values were obtained:
[1] = target: human CB2 receptors (Homo sapiens (Human), UniProt P34972); assay: human CB2 radioligand binding assay ([3H]CP 55,940 competition); conditions: HEK293 membranes, 0.5 nM [3H]CP 55,940
Description: HEK293 cells stably expressing human CB2 receptors were grown until a confluent monolayer was formed. Briefly, the cells were harvested and homogenized in TE buffer (50 mM Tris-HCl, 1 mM MgCl2, and 1 mM EDTA) using a polytron for 2×10 second bursts in the presence of protease inhibitors, followed by centrifugation at 45,000×g for 20 minutes. The final membrane pellet was re-homogenized in storage buffer (50 mM Tris-HCl, 1 mM MgCl2, and 1 mM EDTA and 10% sucrose) and frozen at −78° C. until used. Saturation binding reactions were initiated by the addition of membrane preparation (protein concentration of 5 μg/well for human CB2) into wells of a deep well plate containing [^3H]CP 55,940 (120 Ci/mmol, a nonselective CB agonist commercially available from Tocris) in assay buffer (50 mM Tris, 2.5 mM EDTA, 5 mM MgCl2, and 0.5 mg/mL fatty acid free BSA, pH 7.4). After 90 min incubation at 30° C., binding reaction was terminated by the addition of 300 μL/well of cold assay buffer followed by rapid vacuum filtration through a UniFilter-96 GF/C filter plates (pre-soaked in 1 mg/mL BSA for 2 hours). The bound activity was counted in a TopCount using Microscint-20. Saturation experiments were conducted with twelve concentrations of [^3H]CP 55,940 ranging from 0.01 to 8 nM. Competition experiments were conducted with 0.5 nM [^3H]CP 55,940 and five concentrations (0.01 nM to 10 μM) of displacing ligands. The addition of 10 μM unlabeled CP 55,940 (Tocris, Ellisville, Mo.) was used to assess nonspecific binding.

[2] = target: T1, rat CB2 receptors (Rattus norvegicus (Rat), UniProt Q9QZN9); assay: rat CB2 cyclase functional assay (HitHunter cAMP); type: cell-based; conditions: HEK cells, forskolin 18 μM
Description: The cyclase functional assays were performed using the HitHunter™ cAMP assay kit from DiscoveRx (Fremont, Calif.) according to vendor's protocol. Briefly, HEK cells expressing CB2 or CB1 receptors (rat or human) were detached using cell dissociation buffer (Invitrogen, Carlsbad, Calif.), dispersed and placed in suspension at 10,000 cells per well in 96 well plates prior to the assay. Cell suspensions were incubated at 37° C. for 20 min with variable concentrations of test ligands and or 10 μM CP 55,940-positive control in the presence of a fixed concentration of forskolin (18 μM for rat CB2 and 37 μM for rat CB1) in Dulbescco's phosphate-buffered saline (Invitrogen, Carlsbad, Calif.) supplemented with bovine serum albumin (0.01% final concentration). The reactions were terminated by the addition of lysis buffer and the luminescence was detected following the procedure according to the manufacturer's instructions. EC50 values were calculated using sigmoidal dose-response curve fitting from Prism (GraphPad).

[3] = target: T1, rat CB2 receptors; assay: rat CB2 radioligand binding assay ([3H]CP 55,940 competition); conditions: HEK293 membranes, 0.5 nM [3H]CP 55,940
Description: HEK293 cells stably expressing rat CB2 receptors were grown until a confluent monolayer was formed. Briefly, the cells were harvested and homogenized in TE buffer (50 mM Tris-HCl, 1 mM MgCl2, and 1 mM EDTA) using a polytron for 2×10 second bursts in the presence of protease inhibitors, followed by centrifugation at 45,000×g for 20 minutes. The final membrane pellet was re-homogenized in storage buffer (50 mM Tris-HCl, 1 mM MgCl2, and 1 mM EDTA and 10% sucrose) and frozen at −78° C. until used. Saturation binding reactions were initiated by the addition of membrane preparation (protein concentration of 20 μg/well for rat CB2) into wells of a deep well plate containing [^3H]CP 55,940 (120 Ci/mmol, a nonselective CB agonist commercially available from Tocris) in assay buffer (50 mM Tris, 2.5 mM EDTA, 5 mM MgCl2, and 0.5 mg/mL fatty acid free BSA, pH 7.4). After 45 min incubation at 30° C., binding reaction was terminated by the addition of 300 μl/well of cold assay buffer followed by rapid vacuum filtration through a UniFilter-96 GF/C filter plates (pre-soaked in 1 mg/mL BSA for 2 hours). The bound activity was counted in a TopCount using Microscint-20. Saturation experiments were conducted with twelve concentrations of [^3H]CP 55,940 ranging from 0.01 to 8 nM. Competition experiments were conducted with 0.5 nM [^3H]CP 55,940 and five concentrations of displacing ligands selected from the range of 0.01 nM to 10 μM. The addition of 10 μM unlabeled CP 55,940 (Tocris, Ellisville, Mo.) was used to assess nonspecific binding.

T1 sequence (Q9QZN9 whole entry): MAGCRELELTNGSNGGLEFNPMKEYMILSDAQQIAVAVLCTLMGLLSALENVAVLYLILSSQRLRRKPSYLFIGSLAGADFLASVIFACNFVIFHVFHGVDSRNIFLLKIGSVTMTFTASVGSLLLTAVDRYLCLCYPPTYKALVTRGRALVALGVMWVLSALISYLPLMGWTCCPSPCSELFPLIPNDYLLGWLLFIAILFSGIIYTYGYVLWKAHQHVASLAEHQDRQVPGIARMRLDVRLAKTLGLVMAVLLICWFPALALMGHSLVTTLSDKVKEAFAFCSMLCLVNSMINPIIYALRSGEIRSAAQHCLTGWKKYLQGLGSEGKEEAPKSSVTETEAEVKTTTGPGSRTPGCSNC
Chain of human CB2 receptors (P34972 whole entry): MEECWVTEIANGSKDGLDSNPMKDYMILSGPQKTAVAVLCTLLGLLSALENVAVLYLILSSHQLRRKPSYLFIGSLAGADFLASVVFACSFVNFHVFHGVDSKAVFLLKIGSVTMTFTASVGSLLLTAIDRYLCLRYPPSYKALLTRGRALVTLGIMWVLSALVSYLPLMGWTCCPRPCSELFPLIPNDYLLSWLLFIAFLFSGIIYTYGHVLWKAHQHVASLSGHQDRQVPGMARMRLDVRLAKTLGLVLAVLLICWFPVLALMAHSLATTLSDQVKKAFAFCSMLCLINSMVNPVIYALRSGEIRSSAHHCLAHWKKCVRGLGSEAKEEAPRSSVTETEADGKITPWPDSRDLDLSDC

| SMILES | Ki [1] [nM] | EC50 [2] [nM] | Ki [3] [nM] |
| --- | --- | --- | --- |
| CC(C)Cn1cc(C(C)(C)C)s/c1=N\C(=O)c1cc(Br)ccc1OC[C@@H]1CCCN1C [Example 1, 5-bromo-N-[(2Z)-5-tert-butyl-3-isobutyl-1,3-thiazol-2(3H)-ylidene]-2-{[(2S)-1-methylpyrrolidin-2-yl]methoxy}benzamide] | 27 | 0.75 | 19 |
| CCCCn1cc(C(C)(C)C)s/c1=N\C(=O)c1cc(Cl)ccc1OCC(N)=O [Example 2, 2-(2-amino-2-oxoethoxy)-N-[(2Z)-3-butyl-5-tert-butyl-1,3-thiazol-2(3H)-ylidene]-5-chlorobenzamide] | 3.1 | 0.07 | 1.1 |
| CC(C)Cn1cc(C(C)(C)C)s/c1=N\C(=O)c1cc(C(F)(F)F)ccc1OCc1ccco1 [Example 3, N-[(2Z)-5-tert-butyl-3-isobutyl-1,3-thiazol-2(3H)-ylidene]-2-(2-furylmethoxy)-5-(trifluoromethyl)benzamide] | 7.4 | 1.9 | 8.7 |
| CC(C)Cn1cc(C(C)(C)C)s/c1=N\C(=O)c1cc(Cl)ccc1OCC1CCO1 (stereo not drawn) [Example 4, N-[(2Z)-5-tert-butyl-3-isobutyl-1,3-thiazol-2(3H)-ylidene]-5-chloro-2-(oxetan-2-ylmethoxy)benzamide] | 9 | 0.23 | 5.2 |
| CC(C)Cn1cc(C(C)(C)C)s/c1=N\C(=O)c1cc(C(F)(F)F)ccc1OC[C@@H]1CCCN1C [Example 5, N-[(2Z)-5-tert-butyl-3-isobutyl-1,3-thiazol-2(3H)-ylidene]-2-{[(2S)-1-methylpyrrolidin-2-yl]methoxy}-5-(trifluoromethyl)benzamide] | 39 | 1.2 | 18 |
| CC(C)Cn1cc(C(C)(C)C)s/c1=N\C(=O)c1cc(C(F)(F)F)ccc1OCCN1CCCC1 [Example 7, N-[(2Z)-5-tert-butyl-3-isobutyl-1,3-thiazol-2(3H)-ylidene]-2-(2-pyrrolidin-1-ylethoxy)-5-(trifluoromethyl)benzamide] | 32 | 1.3 | 12 |
| CC(C)Cn1cc(C(C)(C)C)s/c1=N\C(=O)c1cc(C(F)(F)F)ccc1OCC1CCOC1 (stereo not drawn) [Example 8, N-[(2Z)-5-tert-butyl-3-isobutyl-1,3-thiazol-2(3H)-ylidene]-2-(tetrahydrofuran-3-ylmethoxy)-5-(trifluoromethyl)benzamide] | 5 | 0.058 | 2.4 |
| CCCCn1cc(C(C)(C)C)s/c1=N\C(=O)c1cc(C(F)(F)F)ccc1OC[C@@H]1CCCN1C [Example 9, N-[(2Z)-3-butyl-5-tert-butyl-1,3-thiazol-2(3H)-ylidene]-2-{[(2S)-1-methylpyrrolidin-2-yl]methoxy}-5-(trifluoromethyl)benzamide] | 9.2 | 0.97 | 7.7 |
| CN1CCC[C@H]1COc1ccc(C(F)(F)F)cc1C(=O)/N=c1\sc(C(C)(C)C)cn1CC1(O)CCC1 [Example 11, N-[(2Z)-5-tert-butyl-3-[(1-hydroxycyclobutyl)methyl]-1,3-thiazol-2(3H)-ylidene]-2-{[(2S)-1-methylpyrrolidin-2-yl]methoxy}-5-(trifluoromethyl)benzamide] | 95 | 0.41 | 32 |
| CC(C)Cn1cc(C(C)(C)C)s/c1=N\C(=O)c1cc(C(F)(F)F)ccc1OC[C@@H]1CCN1C [Example 12, N-[(2Z)-5-tert-butyl-3-isobutyl-1,3-thiazol-2(3H)-ylidene]-2-{[(2S)-1-methylazetidin-2-yl]methoxy}-5-(trifluoromethyl)benzamide] | 37 | 3.5 | 26 |
| CC(C)Cn1cc(C(C)(C)C)s/c1=N\C(=O)c1cc(C(F)(F)F)ccc1OC[C@@H]1CCN1 [Example 14, 2-[(2S)-azetidin-2-ylmethoxy]-N-[(2Z)-5-tert-butyl-3-isobutyl-1,3-thiazol-2(3H)-ylidene]-5-(trifluoromethyl)benzamide] | 44 | 0.36 | 13 |
| CC(=O)OCCOc1ccc(C(F)(F)F)cc1C(=O)/N=c1\sc(C(C)(C)C)cn1CC(C)C [Example 18, 2-[2-({[(2Z)-5-tert-butyl-3-isobutyl-1,3-thiazol-2(3H)-ylidene]amino}carbonyl)-4-(trifluoromethyl)phenoxy]ethyl acetate] | 16 | 0.19 | 1.4 |
| CC(C)Cn1cc(C(C)(C)C)s/c1=N\C(=O)c1cc(C(F)(F)F)ccc1OCCO [Example 19, N-[(2Z)-5-tert-butyl-3-isobutyl-1,3-thiazol-2(3H)-ylidene]-2-(2-hydroxyethoxy)-5-(trifluoromethyl)benzamide] | 0.73 | 0.13 | 0.15 |
| CCCCn1/c(=N/C(=O)c2cc(C(F)(F)F)ccc2OCC(C)(C)O)sc2ccncc21 [Example 21, N-[(2Z)-3-butyl[1,3]thiazolo[4,5-c]pyridin-2(3H)-ylidene]-2-(2-hydroxy-2-methylpropoxy)-5-(trifluoromethyl)benzamide] | 5.4 | 0.58 | 9.3 |
| CCCCn1/c(=N/C(=O)c2cc(C(F)(F)F)ccc2OCCNC(C)=O)sc2ccncc21 [Example 25, 2-[2-(acetylamino)ethoxy]-N-[(2Z)-3-butyl[1,3]thiazolo[4,5-c]pyridin-2(3H)-ylidene]-5-(trifluoromethyl)benzamide] | 1.5 | 0.11 | 3.6 |
| CCCCn1/c(=N/C(=O)c2cc(C(F)(F)F)ccc2OC[C@H](C)O)sc2ccncc21 [Example 29, N-[(2Z)-3-butyl[1,3]thiazolo[4,5-c]pyridin-2(3H)-ylidene]-2-{[(2S)-2-hydroxypropyl]oxy}-5-(trifluoromethyl)benzamide] | 2 | 1.4 | 2.5 |
